Source: patent publication US11566007B2, “Ras inhibitors” (Revolution Medicines, Inc., priority 2019, dated 2023)

Legend:
Type in all cases: biochemical
K-Ras G12C = K-Ras G12C (Homo sapiens (Human), UniProt P01116+P62937, G12C); test: Ras-Raf (BRAF RBD) disruption / FRET / MOA assay, KRAS G12C; conditions: KRAS G12C; Ras-Raf disruption/FRET/MOA assay; read-out: IC50* KRAS G12C FRET data
In short: (§1)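 Ras:RAF disruption was scored as a fall in TR-FRET ratio relative to DMSO. Compound ranged in 3-fold steps over 10 points from 30 μM final; incubation ran 3 h at 25° C, detection antibodies a further 1.5 h. Reported as IC50.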

K-Ras G13C = K-Ras G13C (Homo sapiens (Human), UniProt P01116+P62937, G13C); test: Ras-Raf (BRAF RBD) disruption / FRET / MOA assay, KRAS G13C; conditions: KRAS G13C; Ras-Raf disruption/FRET/MOA assay; read-out: IC50* KRAS G13C FRET data
In short: as §1

KRAS G12V = KRAS G12V (Homo sapiens (Human), UniProt P01116+P62937, G12V); test: Ras-Raf (BRAF RBD) disruption / FRET / MOA assay, KRAS G12V; conditions: read-out: IC50* KRAS G12V FRET data
In short: as §1

KRAS G13D = KRAS G13D (Homo sapiens (Human), UniProt P01116+P62937, G13D); test: Ras-Raf (BRAF RBD) disruption / FRET / MOA assay, KRAS G13D; conditions: read-out: IC50* KRAS G13D FRET data
In short: as §1

KRAS Q61H = KRAS Q61H (Homo sapiens (Human), UniProt P01116+P62937, Q61H); test: Ras-Raf (BRAF RBD) disruption / FRET / MOA assay, KRAS Q61H; conditions: Ras-Raf disruption/FRET/MOA assay; class symbols; read-out: KRAS Q61H FRET data IC50
In short: (§2)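 TR-FRET disruption of nucleotide-loaded Ras binding to BRAF RBD via compound-driven ternary complex with cyclophilin A. Compound as 10-point 3-fold series from 30 μM final, 3 h at 25° C, then anti-His Eu-W1024 (10 nM) and anti-GST allophycocyanin (50 nM) for 1.5 h. IC50 from decreased FRET ratio versus DMSO.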

NRAS G12C = NRAS G12C (Homo sapiens (Human), UniProt P01111+P62937, G12C); test: Ras-Raf (BRAF RBD) disruption / FRET / MOA assay, NRAS G12C; conditions: read-out: IC50* NRAS G12C FRET data
In short: as §1

NRAS Q61R = NRAS Q61R (Homo sapiens (Human), UniProt P01111+P62937, Q61R); test: Ras-Raf (BRAF RBD) disruption / FRET / MOA assay, NRAS Q61R; conditions: NRAS Q61R; Ras-Raf disruption/FRET/MOA assay; read-out: IC50* NRAS Q61R FRET data
In short: as §2

NRAS Q61K = NRAS Q61K (Homo sapiens (Human), UniProt P01111+P62937, Q61K); test: Ras-Raf (BRAF RBD) disruption / FRET / MOA assay, NRAS Q61K; conditions: NRAS Q61K; Ras-Raf disruption/FRET/MOA assay; read-out: IC50* NRAS Q61K FRET data
In short: as §2

NRAS WT = NRAS WT (Homo sapiens (Human), UniProt P01111+P62937); test: Ras-Raf (BRAF RBD) disruption / FRET / MOA assay, NRAS WT; conditions: read-out: IC50* NRAS WT FRET data
In short: as §2

Chain of K-Ras G12C (P01116-2 other isoform, or with tags, fused parts or gaps G12C): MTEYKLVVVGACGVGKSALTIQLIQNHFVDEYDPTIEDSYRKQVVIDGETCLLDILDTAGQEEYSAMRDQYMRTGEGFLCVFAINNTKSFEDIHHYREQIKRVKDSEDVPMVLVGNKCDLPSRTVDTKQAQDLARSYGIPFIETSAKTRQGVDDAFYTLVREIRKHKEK
Chain of K-Ras G12C (P62937 whole entry): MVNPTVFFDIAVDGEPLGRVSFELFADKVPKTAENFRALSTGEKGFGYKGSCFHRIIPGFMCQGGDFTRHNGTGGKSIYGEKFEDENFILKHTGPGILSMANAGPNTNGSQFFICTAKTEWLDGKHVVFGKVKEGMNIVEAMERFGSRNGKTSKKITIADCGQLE
Chain of NRAS WT (P01111 whole entry): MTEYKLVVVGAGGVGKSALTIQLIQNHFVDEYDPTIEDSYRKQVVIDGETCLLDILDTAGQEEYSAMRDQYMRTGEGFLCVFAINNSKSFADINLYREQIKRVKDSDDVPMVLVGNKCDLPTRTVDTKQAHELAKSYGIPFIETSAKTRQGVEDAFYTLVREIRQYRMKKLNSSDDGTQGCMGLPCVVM
Chain of NRAS WT (P62937 whole entry): as the sequence (P62937 whole entry) above
Chain of KRAS G12V (P01116-2 other isoform, or with tags, fused parts or gaps G12V): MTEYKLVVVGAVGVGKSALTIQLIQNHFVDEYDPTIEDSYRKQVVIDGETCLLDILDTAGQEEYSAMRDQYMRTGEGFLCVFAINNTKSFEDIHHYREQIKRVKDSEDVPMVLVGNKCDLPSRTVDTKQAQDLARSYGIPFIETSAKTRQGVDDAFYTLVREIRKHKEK
Chain of KRAS G12V (P62937 whole entry): as the sequence (P62937 whole entry) above
Chain of NRAS Q61R (P01111 whole entry Q61R): as the sequence (P01111 whole entry) above, with Q61R counted along it
Chain of NRAS Q61R (P62937 whole entry): as the sequence (P62937 whole entry) above
Chain of KRAS Q61H (P01116-2 other isoform, or with tags, fused parts or gaps Q61H): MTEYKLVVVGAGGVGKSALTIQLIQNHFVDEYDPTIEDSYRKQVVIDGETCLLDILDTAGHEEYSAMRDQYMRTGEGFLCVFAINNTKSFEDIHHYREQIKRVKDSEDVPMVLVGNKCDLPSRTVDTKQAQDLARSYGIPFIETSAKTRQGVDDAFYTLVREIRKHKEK
Chain of KRAS Q61H (P62937 whole entry): as the sequence (P62937 whole entry) above
Chain of K-Ras G13C (P01116-2 other isoform, or with tags, fused parts or gaps G13C): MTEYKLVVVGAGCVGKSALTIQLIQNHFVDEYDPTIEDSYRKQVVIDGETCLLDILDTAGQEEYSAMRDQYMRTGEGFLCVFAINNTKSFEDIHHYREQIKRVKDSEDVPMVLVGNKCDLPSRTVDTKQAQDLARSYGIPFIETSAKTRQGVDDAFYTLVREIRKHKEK
Chain of K-Ras G13C (P62937 whole entry): as the sequence (P62937 whole entry) above
Chain of KRAS G13D (P01116-2 other isoform, or with tags, fused parts or gaps G13D): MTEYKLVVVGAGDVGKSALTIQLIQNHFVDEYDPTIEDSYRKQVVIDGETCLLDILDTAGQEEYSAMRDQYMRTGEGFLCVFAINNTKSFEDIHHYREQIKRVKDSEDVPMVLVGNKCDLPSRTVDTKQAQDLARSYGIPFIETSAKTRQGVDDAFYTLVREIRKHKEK
Chain of KRAS G13D (P62937 whole entry): as the sequence (P62937 whole entry) above
Chain of NRAS Q61K (P01111 whole entry Q61K): as the sequence (P01111 whole entry) above, with Q61K counted along it
Chain of NRAS Q61K (P62937 whole entry): as the sequence (P62937 whole entry) above
Chain of NRAS G12C (P01111 whole entry G12C): as the sequence (P01111 whole entry) above, with G12C counted along it
Chain of NRAS G12C (P62937 whole entry): as the sequence (P62937 whole entry) above

SMILES | IC50 (K-Ras G12C) | IC50 (K-Ras G13C) | IC50 (KRAS G12V) | IC50 (KRAS G13D) | IC50 (KRAS Q61H) | IC50 (NRAS G12C) | IC50 (NRAS Q61R) | IC50 (NRAS Q61K) | IC50 (NRAS WT)
C=CC(=O)N(C)C1CCN(C(=O)N(C)[C@H](C(=O)N[C@H]2Cc3nc(cs3)-c3ccc4c(c3)c(c(-c3cccnc3[C@H](C)OC)n4CC)CC(C)(C)COC(=O)[C@@H]3CCCN(N3)C2=O)C(C)C)CC1 (atropisomer, axis not shown) [Example A383] | 10 to 100 nM | 10 to 100 nM | 10 to 100 nM | 100 to 1000 nM | 10 to 100 nM | 10 to 100 nM | 10 to 100 nM | 10 to 100 nM | 10 to 100 nM
C=CC(=O)N1C[C@@H](C)N(C(=O)N(C)[C@H](C(=O)N[C@H]2Cc3nc(cs3)-c3ccc4c(c3)c(c(-c3cccnc3[C@H](C)OC)n4CC)CC(C)(C)COC(=O)[C@@H]3CCCN(N3)C2=O)C(C)C)[C@H](C)C1 (atropisomer, axis not shown) [Example A388] | < 10 nM | 10 to 100 nM | 10 to 100 nM | 10 to 100 nM | < 10 nM | < 10 nM | < 10 nM | < 10 nM | < 10 nM
C=CC(=O)N1C[C@@H]2CN(C(=O)N(C)[C@H](C(=O)N[C@H]3Cc4nc(cs4)-c4ccc5c(c4)c(c(-c4cccnc4[C@H](C)OC)n5CC)CC(C)(C)COC(=O)[C@@H]4CCCN(N4)C3=O)C(C)C)C[C@@H]2C1 (atropisomer, axis not shown) [Example A389] | 10 to 100 nM | 10 to 100 nM | 10 to 100 nM | 100 to 1000 nM | 10 to 100 nM | 10 to 100 nM | 10 to 100 nM | 10 to 100 nM | 10 to 100 nM
C=CC(=O)N(C)[C@@H]1CCN(C(=O)N(C)[C@H](C(=O)N[C@H]2Cc3nc(cs3)-c3ccc4c(c3)c(c(-c3cccnc3[C@H](C)OC)n4CC)CC(C)(C)COC(=O)[C@@H]3CCCN(N3)C2=O)C(C)C)C1 (atropisomer, axis not shown) [Example A416] | 10 to 100 nM | 100 to 1000 nM | 100 to 1000 nM | 100 to 1000 nM | 10 to 100 nM | 100 to 1000 nM | 100 to 1000 nM | 10 to 100 nM | 100 to 1000 nM
C=CC(=O)N1CC[C@H](C(=O)N(C)[C@H](C(=O)N[C@H]2Cc3coc(n3)-c3ccc4c(c3)c(c(-c3cccnc3[C@H](C)OC)n4CC)CC(C)(C)COC(=O)[C@@H]3CCCN(N3)C2=O)C(C)C)C1 (atropisomer, axis not shown) [Example A468] | 100 to 1000 nM | 1000 to 10000 nM | 1000 to 10000 nM | 1000 to 10000 nM | 100 to 1000 nM | 100 to 1000 nM | > 10000 nM | 1000 to 10000 nM | 1000 to 10000 nM
C=CC(=O)N1CCN(C(=O)N(C)[C@H](C(=O)N[C@H]2Cc3nc(cs3)-c3ccc4c(c3)c(c(-c3cccnc3[C@H](C)OC)n4CC)CC(C)(C)COC(=O)[C@@H]3CCCN(N3)C2=O)C(C)C)CC1 (atropisomer, axis not shown) [Example A491] | 10 to 100 nM | 10 to 100 nM | 10 to 100 nM | 100 to 1000 nM | 10 to 100 nM | 10 to 100 nM | 10 to 100 nM | 10 to 100 nM | 10 to 100 nM
C=CC(=O)N1CC[C@H](C(=O)N(C)[C@H](C(=O)N[C@H]2Cc3nc(cs3)-c3ccc4c(c3)c(c(-c3cccnc3[C@H](C)OC)n4CC(F)(F)F)CC(C)(C)COC(=O)[C@@H]3CCCN(N3)C2=O)C(C)C)C1 (atropisomer, axis not shown) [Example A502] | 100 to 1000 nM | 100 to 1000 nM | 1000 to 10000 nM | 1000 to 10000 nM | 100 to 1000 nM | 100 to 1000 nM | 100 to 1000 nM | 100 to 1000 nM | 100 to 1000 nM
